Where “and” joins values, the source holds several entries; their conditions need not be identical. Equal entries are not always repeated. Calls of active or inactive are those of the source. How the calls were made is not given here.
System: rodent lifetime carcinogenesis bioassay, tumor incidence TD50
Assay: carcinogenic potency in animals, long-term in vivo studies, CPDB compilation (AID 1745844)

For CC1CCC(C(C)C)C(O)C1 (configuration not stated), the carcinogen call (mouse, strain B6C3F1, females, in feed, site: any site (literature study), lesion: several types, types named in the paper, dosed 103 weeks, study length 104 weeks) was “negative (inactive)”, the TD50 (mouse, strain B6C3F1, females, in feed, site: liver, lesion: hepatocellular adenoma + hepatocellular carcinoma + neoplastic nodule, dosed 103 weeks, study length 104 weeks) was 5190 mg/kg/day and the TD50 (mouse, strain B6C3F1, females, in feed, site: lung, lesion: alveolar/bronchiolar adenoma + alveolar/bronchiolar carcinoma, dosed 103 weeks, study length 104 weeks) was 3170 mg/kg/day. For the same compound, the TD50 (mouse, strain B6C3F1, males, in feed, site: any site (literature study), lesion: several types, types named in the paper, dosed 103 weeks, study length 104 weeks) was 2750 mg/kg/day (inactive), the TD50 (mouse, strain B6C3F1, males, in feed, site: liver, lesion: hepatocellular adenoma + hepatocellular carcinoma + neoplastic nodule, dosed 103 weeks, study length 104 weeks) was 1960 mg/kg/day and the carcinogen call (rat, strain Fischer 344, females, in feed, site: any site (literature study), lesion: several types, types named in the paper, dosed 103 weeks, study length 105 weeks) was “negative (inactive)”. For the same compound, the TD50 (rat, strain Fischer 344, males, in feed, site: any site (literature study), lesion: several types, types named in the paper, dosed 103 weeks, study length 105 weeks) was 1410 mg/kg/day (inactive) and the TD50 (rat, strain Fischer 344, males, in feed, site: liver, lesion: hepatocellular adenoma + hepatocellular carcinoma + neoplastic nodule, dosed 103 weeks, study length 105 weeks) was 5690 mg/kg/day.

In the case of C1CCNCC1, the TD50 (rat, strain MRC, females, in drinking water, site: any site (literature study), lesion: several types, types named in the paper, dosed 75 weeks, study length 104 weeks) is reported as 63.3 mg/kg/day.

C=C1C(CCl)(CCl)C2(Cl)C(Cl)C(Cl)C1(Cl)C2(Cl)Cl (configuration not stated) was tested, and the TD50 (mouse, strain B6C3F1, females, in feed, site: liver, lesion: hepatocellular adenoma, dosed 78 weeks, study length 104 weeks) was 91.6 mg/kg/day, the TD50 (mouse, strain B6C3F1, females, in feed, site: liver, lesion: hepatocellular adenoma, dosed 80 weeks, study length 90 weeks) was 11.4 mg/kg/day and 11.6 mg/kg/day and the TD50 (mouse, strain B6C3F1, females, in feed, site: liver, lesion: hepatocellular carcinoma, dosed 78 weeks, study length 104 weeks) was 66.2 mg/kg/day. For the same compound, the TD50 (mouse, strain B6C3F1, females, in feed, site: liver, lesion: hepatocellular carcinoma, dosed 80 weeks, study length 90 weeks) was 273 mg/kg/day, the TD50 (mouse, strain B6C3F1, females, in feed, site: liver, lesion: several types, pooled by NCI/NTP, dosed 80 weeks, study length 90 weeks) was 10.6 mg/kg/day and 10.8 mg/kg/day and the TD50 (mouse, strain B6C3F1, females, in feed, site: liver, lesion: several types, types named in the paper, dosed 78 weeks, study length 104 weeks) was 37 mg/kg/day. The TD50 (mouse, strain B6C3F1, males, in feed, site: liver, lesion: hepatocellular adenoma, dosed 78 weeks, study length 104 weeks) was 21.2 mg/kg/day, the TD50 (mouse, strain B6C3F1, males, in feed, site: liver, lesion: hepatocellular adenoma, dosed 80 weeks, study length 90 weeks) was 6.12 mg/kg/day and 5.76 mg/kg/day and the TD50 (mouse, strain B6C3F1, males, in feed, site: liver, lesion: hepatocellular carcinoma, dosed 78 weeks, study length 104 weeks) was 27.5 mg/kg/day. For the same compound, the TD50 (mouse, strain B6C3F1, males, in feed, site: liver, lesion: hepatocellular carcinoma, dosed 80 weeks, study length 90 weeks) was 248 mg/kg/day and 168 mg/kg/day, the TD50 (mouse, strain B6C3F1, males, in feed, site: liver, lesion: several types, pooled by NCI/NTP, dosed 80 weeks, study length 90 weeks) was 4.2 mg/kg/day and 4.08 mg/kg/day and the TD50 (mouse, strain B6C3F1, males, in feed, site: liver, lesion: several types, types named in the paper, dosed 78 weeks, study length 104 weeks) was 13.6 mg/kg/day. It also gave a TD50 (rat, strain Osborne-Mendel, females, in feed, site: any site (literature study), lesion: several types, types named in the paper, dosed 80 weeks, study length 108 weeks) of 596 mg/kg/day, a TD50 (rat, strain Osborne-Mendel, females, in feed, site: thyroid gland, lesion: follicular-cell adenoma, dosed 80 weeks, study length 108 weeks) of 209 mg/kg/day and a TD50 (rat, strain Osborne-Mendel, males, in feed, site: any site (literature study), lesion: several types, types named in the paper, dosed 80 weeks, study length 108 weeks) of 1020 mg/kg/day. It also gave a TD50 (rat, strain Osborne-Mendel, males, in feed, site: liver, lesion: hepatocellular adenoma + hepatocellular carcinoma + neoplastic nodule, dosed 80 weeks, study length 108 weeks) of 949 mg/kg/day, a TD50 (rat, strain Osborne-Mendel, males, in feed, site: liver, lesion: neoplastic nodule, dosed 80 weeks, study length 108 weeks) of 92.1 mg/kg/day and a TD50 (rat, strain Osborne-Mendel, males, in feed, site: thyroid gland, lesion: follicular-cell adenoma + follicular-cell carcinoma, dosed 80 weeks, study length 108 weeks) of 58.9 mg/kg/day.
